Among the data in patent publication US20080146555A1, “Uses of Kinase Inhibitors and Compositions Thereof” (GPC Biotech, Inc, priority 2004, published 2008) are IC50 values, retold here.

Broadly, the pIC50 is −log10 of the IC50, conventionally taken in molar units.

pIC50: −log10 of the molar value. Some results are limits rather than exact numbers.

The test system of this assay is HCT-116 cells. Kind of assay: Calcein AM viability assay, HCT-116. In kind it is cell-based. The following applies: Homo sapiens, HCT-116, non-protein adjusted, Table 4; read-out: HCT-116 viability IC50. As to the method: The potency of the subject kinase inhibitors, as measured by loss of cellular viability, was determined with the Calcein AM assay (Molecular Probes). Calcein AM is a substrate of intracellular esterases, which is cleaved only in viable cells to generate a fluorescent product that can be quantified with a fluorescent plate reader. The fluorescent signal is proportional to the number of viable cells, and thus loss of signal in response to the exposure of cells to the subject kinase inhibitors correlates with a loss of viability. This assay not only distinguishes cell cycle arrest, in which cells may still by viable, from loss of viability, and is thus well suited for the evaluation of the subject kinase inhibitors. A compound that is a potent cytotoxic agent may cause significant loss of cell viability in such an assay.
Cellular IC50's were determined in the human colorectal carcinoma cell line, HCT-116, and the normal human fibroblast, IMR90. Protein adjusted IC50's were also determined in HCT-116. Results of such viability assays are presented in Table 2 (HCT-116 (viability/protein adjusted) and IMR-90). IC50's (μM, non-protein adjusted) for the viability assay against HCT-116 cells are shown for further compounds of the invention in Table 4.
HCT-116 or IMR90 cells were recovered from sub-confluent plates by trypsinization and 1,000 or 4,000 cells, respectively, were plated in 24-well dishes and incubated overnight at 37° C., 5% CO2. HCT-116 cells were cultured in RPMI-1640, 10% FCS, and IMR90 cells were cultured in Minimum Essential Medium-alpha, 10% FCS. After overnight incubation to allow adherence, the media was aspirated from each well and replaced with media containing a test compound at a concentration from 0 to 250 nM, spanning a total of 7 doses. The plates were returned to the incubator and cultured for an additional 72 hours (3 days). […] After 72-hours incubation with the test compound, the cells were washed twice with 1×PBS, taking special care to remove all residual buffer.
A 5 μM Calcein AM solution was prepared by dissolving a 50 μg aliquot of Calcein (Molecular Probes catalog #C3100) in 50 μl DMSO. After the Calcein had completely dissolved (10 minutes at room temperature), it was diluted into 10 ml PBS. Calcein/PBS (0.5 ml) was added to each well. The plates were incubated for 75 minutes at 37° C. (protected from light) and the fluorescent signal was read on a fluorescent plate reader (excitation 485/20 and emission 530/25).

In the case of `O=C(Nc1cccc2c1C(=O)c1c-2n[nH]c1-c1ccc(OCCN2CCOCC2)cc1)NN1CCOCC1` [Compound A3], the pIC50 is above 7.00.

In the case of `Cc1cc(OCCN2CCOCC2)ccc1-c1[nH]nc2c1C(=O)c1c(NC(=O)NN3CCN(C)CC3)cccc1-2` [Compound A7], the pIC50 is above 7.00.

For `Cc1cc(OCCN2CCCCC2)ccc1-c1[nH]nc2c1C(=O)c1c(NC(=O)NN3CCN(C)CC3)cccc1-2` [Compound A8], the pIC50 is above 7.00.

In the case of `Cc1cc(OCCN2CCCN(C)CC2)ccc1-c1[nH]nc2c1C(=O)c1c(NC(=O)NN3CCN(C)CC3)cccc1-2` [Compound A9], the pIC50 was above 7.00.

Regarding `O=C(Nc1cccc2c1C(=O)c1c-2n[nH]c1-c1ccc(O)c(CN2CCOCC2)c1)NN1CCOCC1` [Compound A10], the pIC50 was above 7.00.

In the case of `Cc1cc(OCCn2cccn2)ccc1-c1[nH]nc2c1C(=O)c1c(NC(=O)NN3CCN(C)CC3)cccc1-2` [Compound A11], the pIC50 is above 7.00.

With `CN1CCN(NC(=O)Nc2cccc3c2C(=O)c2c(-c4ccc(OCCN5CCCC5)cc4F)n[nH]c2-3)CC1` [Compound A12], the pIC50 was above 7.00.

On to `CN1CCN(CCOc2ccc(-c3n[nH]c4c3C(=O)c3c(NC(=O)NN5CCN(C)CC5)cccc3-4)c(F)c2)CC1` [Compound A13], for which the pIC50 is above 8.00.

For the compound `CN1CCN(NC(=O)Nc2cccc3c2C(=O)c2c(-c4ccc(OCCN5CCCC5)c(F)c4)n[nH]c2-3)CC1` [Compound A14], the pIC50 is above 7.00.

Regarding `CN1CCN(NC(=O)Nc2cccc3c2C(=O)c2c-3n[nH]c2-c2ccc(O)cc2)CC1` [Compound A15], the pIC50 was above 7.00.

For the compound `CC(C)N1CCN(CCOc2ccc(-c3n[nH]c4c3C(=O)c3c(NC(=O)NN5CCOCC5)cccc3-4)c(F)c2)CC1` [Compound A16], the pIC50 was above 7.00.

With `CN1CCN(NC(=O)Nc2cccc3c2C(=O)c2c-3n[nH]c2-c2ccc(OCCn3cccn3)cc2)CC1` [Compound A17], the negative-log IC50 (pIC50) was above 7.00.

With `Cc1cc(-c2[nH]nc3c2C(=O)c2c(NC(=O)NN4CCN(C)CC4)cccc2-3)ccc1OCCN1CCN(C(C)C)CC1` [Compound A18], the pIC50 is above 7.00.

In the case of `Cc1cc(OCCN2CCN(C(C)C)CC2)ccc1-c1[nH]nc2c1C(=O)c1c(NC(=O)NN3CCN(C)CC3)cccc1-2` [Compound A19], the pIC50 is above 7.00.

As to `CC(C)N1CCN(CCCOc2ccc(-c3[nH]nc4c3C(=O)c3c(NC(=O)NN5CCOCC5)cccc3-4)cc2)CC1` [Compound A20], the negative-log IC50 (pIC50) is above 7.00.

As to `Cc1cc(OCCCN2CCN(C(C)C)CC2)ccc1-c1[nH]nc2c1C(=O)c1c(NC(=O)NN3CCOCC3)cccc1-2` [Compound A21], the pIC50 is above 7.00.

`CC(C)N1CCN(CCOc2ccc(-c3n[nH]c4c3C(=O)c3c(NC(=O)NN5CCOCC5)cccc3-4)cc2F)CC1` [Compound A22]: the pIC50 is above 7.00.

Turning to `CC(C)N1CCN(NC(=O)Nc2cccc3c2C(=O)c2c-3n[nH]c2-c2ccc(OCCN3CCCC3)cc2)CC1` [Compound A23], the pIC50 is above 7.00.

With `Cc1cc(-c2[nH]nc3c2C(=O)c2c(NC(=O)NN4CCOCC4)cccc2-3)ccc1OCCN1CCN(C(C)C)CC1` [Compound A24], the pIC50 was above 8.00.

In the case of `Cc1cc(-c2[nH]nc3c2C(=O)c2c(NC(=O)NN4CCOCC4)cccc2-3)ccc1OCCN1CCCC1` [Compound A25], the pIC50 was above 8.00.

As for `CCOC(=O)CN1CCN(NC(=O)Nc2cccc3c2C(=O)c2c-3n[nH]c2-c2ccc(OCCN3CCCC3)cc2)CC1` [Compound A26], the pIC50 is above 8.00.

As for `O=C(Nc1cccc2c1C(=O)c1c(-c3ccc(OCCN4CCOCC4)c(F)c3)n[nH]c1-2)NN1CCOCC1` [Compound A27], the pIC50 is above 7.00.

As to `O=C(Nc1cccc2c1C(=O)c1c(-c3ccc(OCCN4CCOCC4)cc3Cl)n[nH]c1-2)NN1CCOCC1` [Compound A28], the pIC50 was above 7.00.

Take `Cc1cc(OCCN2CCCC2)ccc1-c1[nH]nc2c1C(=O)c1c(NC(=O)NN3CCOCC3)cccc1-2` [Compound A29]: the pIC50 is above 7.00.

For `COc1cc(-c2[nH]nc3c2C(=O)c2c(NC(=O)NN4CCOCC4)cccc2-3)ccc1OCCN1CCCC1` [Compound A31], the pIC50 was above 7.00.

Consider `CC(C)C(N)C(=O)OCCN1CCN(NC(=O)Nc2cccc3c2C(=O)c2c-3n[nH]c2-c2ccc(OCCN3CCCC3)cc2)CC1` (stereo not drawn) [Compound A33], for which the pIC50 was above 7.00.

Consider `CN(C)C(=O)COc1ccc(-c2[nH]nc3c2C(=O)c2c(NC(=O)NN4CCOCC4)cccc2-3)cc1` [Compound A34], for which the pIC50 is above 7.00.

As for `Cc1noc(COc2ccc(-c3[nH]nc4c3C(=O)c3c(NC(=O)NN5CCOCC5)cccc3-4)cc2)n1` [Compound A35], the pIC50 was above 7.00.

Take `O=C(Nc1cccc2c1C(=O)c1c-2n[nH]c1-c1ccc(OCC(=O)N2CCOCC2)cc1)NN1CCOCC1` [Compound A36]: the pIC50 was above 8.00.

Regarding `CC(C)OC(=O)CN1CCN(NC(=O)Nc2cccc3c2C(=O)c2c-3n[nH]c2-c2ccc(OCCN3CCCC3)cc2)CC1` [Compound A40], the pIC50 is above 7.00.

Consider `CN(C)C(=O)CN1CCN(NC(=O)Nc2cccc3c2C(=O)c2c-3n[nH]c2-c2ccc(OCCN3CCCC3)cc2)CC1` [Compound A41], for which the pIC50 was above 7.00.

Consider `CN1CCN(NC(=O)Nc2cccc3c2C(=O)c2c-3n[nH]c2-c2ccc(OCC(=O)N3CCCC3)cc2)CC1` [Compound A44], for which the pIC50 was above 7.00.

As for `Cc1noc(COc2ccc(-c3[nH]nc4c3C(=O)c3c(NC(=O)NN5CCN(C)CC5)cccc3-4)cc2)n1` [Compound A45], the pIC50 was above 8.00.

Take `O=C(Nc1cccc2c1C(=O)c1c-2n[nH]c1-c1ccc(OCC(=O)N2CCCC2)cc1)NN1CCOCC1` [Compound A46]: the negative-log IC50 (pIC50) is above 7.00.

Consider `O=C(Nc1cccc2c1C(=O)c1c(-c3ccc(CN4CCOCC4)cc3)n[nH]c1-2)NN1CCOCC1` [Compound A47], for which the pIC50 was above 8.00.

For `CN1CCN(Cc2ccc(-c3n[nH]c4c3C(=O)c3c(NC(=O)NN5CCOCC5)cccc3-4)cc2)CC1` [Compound A49], the pIC50 is above 7.00.

As for `O=C(Nc1cccc2c1C(=O)c1c(-c3ccc(CN4CCCC4)cc3)n[nH]c1-2)NN1CCOCC1` [Compound A51], the pIC50 is above 7.00.

On to `O=C(Nc1cccc2c1C(=O)c1c-2n[nH]c1-c1ccc(S(=O)(=O)N2CCNCC2)cc1)NN1CCOCC1` [Compound A56], for which the negative logarithm of the IC50 (pIC50) was above 7.00.

For the compound `CC(C)N1CCN(S(=O)(=O)c2ccc(-c3[nH]nc4c3C(=O)c3c(NC(=O)NN5CCOCC5)cccc3-4)cc2)CC1` [Compound A57], the pIC50 is above 7.00.

Take `CCOC(=O)COc1ccc(-c2[nH]nc3c2C(=O)c2c(NC(=O)NN4CCOCC4)cccc2-3)cc1` [Compound A65]: the pIC50 is above 7.00.

For the compound `O=C(O)COc1ccc(-c2n[nH]c3c2C(=O)c2c(NC(=O)NN4CCOCC4)cccc2-3)cc1` [Compound A68], the pIC50 was above 6.00.

For the compound `O=C(Nc1cccc2c1C(=O)c1c(-c3ccc(OCc4nnn[nH]4)cc3)n[nH]c1-2)NN1CCOCC1` [Compound A74], the pIC50 was below 6.60.

In the case of `CN1CCN(C(=O)COc2ccc(-c3n[nH]c4c3C(=O)c3c(NC(=O)NN5CCOCC5)cccc3-4)cc2)CC1` [Compound A77], the pIC50 is above 7.00.

Take `CCN1CCN(C(=O)COc2ccc(-c3n[nH]c4c3C(=O)c3c(NC(=O)NN5CCOCC5)cccc3-4)cc2)CC1` [Compound A78]: the pIC50 was above 8.00.

Consider `O=C(Nc1cccc2c1C(=O)c1c(-c3ccc(OCC(=O)N4CCN(Cc5ccccc5)CC4)cc3)n[nH]c1-2)NN1CCOCC1` [Compound A79], for which the pIC50 was above 7.00.
